US20150140002A1, “USE OF A PCSK9 INHIBITOR TO TREAT […]” (Sanofi, priority 2013, published 2015)

Tested on: patients with primary hypercholesterolemia (heFH and non-FH) who are intolerant to statins
Settings: in vivo

CC(C)c1c(C(=O)Nc2ccccc2)c(-c2ccccc2)c(-c2ccc(F)cc2)n1CC[C@@H](O)C[C@@H](O)CC(=O)O [atorvastatin]
Cardiac disorders (SOC) (human): 2 (3.2%) patients (%)
Ear and labyrinth disorders (SOC) (human): 1 (1.6%) patients (%)
General allergic TEAEs (MedDRA SMQ Hypersensitivity) (human): 4 (6.3%) patients (%)
Investigations (SOC) (human): 3 (4.8%) patients (%)
Myalgia (human): 27%
Psychiatric disorders (SOC) (human): 2 (3.2%) patients (%)
Skeletal muscle-related TEAEs (CMQ preferred term) (human): 25 (39.7%) patients (%)
TEAEs (human): 54 (85.7%) patients (%)
Treatment-emergent SAEs (human): 7 (11.1%) patients (%)
Treatment-emergent injection site reactions (ISRs) (human): 1 (1.6%) patients (%)
Treatment-emergent neurologic AEs (human): 8 (12.7%) patients (%)
Treatment-emergent skeletal muscle-related events resulting in early treatment discontinuation (human): 13 (20.6%) patients (%)
back pain (human): 7.9%
early termination due to musculoskeletal and connective tissues disorders SOC events (human): 14 [22.2%] patients [%]
fatigue (human): 7.9%
headache (human): 6.3%
insomnia (human): 1 (1.6%) reports (%)
muscle spasms (human): 11.1%
muscular weakness (human): 6.3%
palpitations (human): 0 reports (%)
paraesthesia (human): 6.3%
patients who prematurely discontinued study treatment due to a TEAE (human): 16 (25.4%) patients (%)
patients who prematurely terminated study treatment due to adverse events (human): 16 (25.4%) patients (%)
rate of AEs (human): 86%
vertigo (human): 1 (1.6%) reports (%)
Treatment-emergent neurocognitive disorders: zero
